Entries after “also recorded” stand apart in the source; their conditions may differ. Read-outs that look alike come from different tables or passages of the source.
Tests used:
Caco-2 cells [1] = experiment: MTT cytotoxicity against Caco-2 cells; assay type: cell-based, human; details: 24 h incubation, mean ± SD of three analyses, read-out: IC50 Conc. against Caco-2 cells
Procedure: (§1) The American Type Culture Collection (ATCC) provided WI-38 (ATCC CCL-75), a cell line from the healthy human embryonic lung, and Caco-2 (ATCC HTB-37), a cell line from colon cancer. These cells were developed in DMEM medium that was supplemented with antibiotics and fetal bovine serum in a 5% CO2 humidified incubator at 37 °C.
The toxicity of the tested compounds (3a–3k) toward Caco-2 cancer cells was examined and compared to 5-Fluorouracil (5-FU, the standard reference drug) utilizing MTT assay, as previously explained. In brief, 1 × 10^5 Caco-2 cells/mL were distributed into each well of a 96-well plate and kept overnight at 37 °C in their growth mixture. The cells were then subjected to the various doses of the studied compounds (50–1000 µM). Following that, the cells were exposed to MTT solution, which induced formazan formation from the MTT, a byproduct of the metabolism of MTT that is proportionate to the quantity of intact cells. To further dissolve the formazan crystal, dimethyl sulfoxide was applied to the cells. Caco-2 survival was obtained through measuring the value of the optical density at 570 nm implementing a microplate reader (Bio-Rad, Hercules, CA, USA), and the effect of the substances on cell proliferation was expressed using the aforementioned formula (2):Cell viability % = (Abs. of tested sample − Abs. of blank)/(Abs. of control − Abs. of blank) × 100(2)
The half-suppression (IC50) dose of the test drugs over a 24 h incubation period was identified through examination of the concentration–response curve. Each value was evaluated three times, and the average of the three ratings was employed to obtain the results.

[2] = DPPH free-radical scavenging (antioxidant) assay; details: 40–200 µM in methanol, versus ascorbic acid
Procedure: The potential of several compounds to scavenge DPPH free radicals was quantified employing a colorimetric approach. Various doses of all tested compounds (3a–3k) were prepared in methanol (40–200 µM), and standard solutions of ascorbic acid (40–200 µM) were made by dissolving the compound in methanol. After determining the optimal concentration of each compound and ascorbic acid, the solutions were supplemented with DPPH. The radical scavenging capacity (RSC) was calculated by measuring the absorbance at 517 nm and using the Formula (1):% DPPH RSC = (Abs. of control − Abs. of sample or standard)/Abs. of control × 100(1)

wi38 cells = experiment: MTT test on healthy WI38 cells; assay type: cell-based, human; details: 24 h; for effect on wi38 normal cell viability: 50 to 1000 µM
Procedure: as §1
The effects of the investigated compounds on the survival of healthy cells, WI38, have been evaluated and compared to 5-Fluorouracil (5-FU, the standard reference drug) utilizing the MTT test at concentrations ranging from 50 to 1000 µM to further determine whether the substances were secure for usage on living tissues. Three distinct evaluations of each value were carried out to calculate the final findings.

Caco-2 cells [3] = experiment: LDH release ELISA in treated Caco-2 cells; assay type: cell-based, human; details: compound-treated Caco-2 cells, p < 0.001
Procedure: The amount of lactate dehydrogenase enzyme (LDH) secreted by compound 3e-treated Caco-2 cells was measured using the double-antibody-sandwich ELISA method (Sun-Red, Cat. N. 201-28-0094) to confirm the cytotoxic impact of the tested chemical on Caco-2 cells. Specifically, 40 µL of the supernatant obtained from centrifuging the Caco-2 cells that had been treated with the 3e compound was added to the test wells. Next, LDH-antibody (10 µL) and Streptavidin-HRP (50 µL) were transferred to every well. After 60 min of incubation at 37 °C, the 96-well plate was shaken gently. […] The 96-well plate was then gently shaken and left to incubate for 60 min at 37 °C. The plates were then washed, and each test well received 50 µL of chromogen solution A and 50 µL of chromogen solution B. The plates were then incubated at 37 °C, and darkened for 10 min. Stop solution (50 µL) was then applied to each well. Once testing was complete, 450 nm was used to determine the plate’s optical density (OD). The amount of released LDH was calculated using the standard curve that had been previously established.

Caco-2 cells [4] = experiment: Annexin V/PI flow cytometry apoptosis assay; assay type: cell-based, human; details: Caco-2, IC50 dose, 24 h
Procedure: The annexin V/PI assay focuses on the translocation of phosphatidylserine (PS) from the inner plasma membrane toward the cell surface within apoptotic cells. Accordingly, the Annexin V-FITC detection kit I (BD Biosciences) was implemented to figure out the numbers of apoptotic and necrotic cells in both the compound 3e-treated and untreated Caco-2 cells for 24 h.. In brief, Caco-2 cells were collected, expanded in 6-well culture dishes with 1 × 10^6 cells per well, and then allowed to incubate for an overnight period to promote cell adhesion and proliferation. After only 24 h in the presence of the 3e compound, the cells were trypsinized, centrifuged, rinsed with PBS, and then mixed with a solution containing Annexin V binding buffer (1×) before being exposed to the Annexin V-FITC and propidium iodide stains. At last, a flow cytometer (BD FACSCalibur™, Biosciences, San Jose, CA, USA) was implemented to find the amount of early as well as late apoptotic cells, and the outcomes were presented graphically.

Caco-2 cells [5] = experiment: Comet assay (DNA fragmentation); assay type: cell-based, human
From the text: The production of genotoxicity in Caco-2 cells treated with compound 3e was investigated using a comet test. Caco-2 cells were pretreated with a caspase-3 inhibitor (Z-DEVD-FMK) to ascertain whether or not caspase-3 activity contributed to the DNA damage induced by compound 3e. Using the comet test, in order to assess the influence of compound 3e upon DNA damage, Caco-2 cells were subjected to either compound 3e separately (IC50 concentration) or compound 3e (IC50 concentration) following prior treatment with Z-DEVD-FMK ([…]) for 1 h. Broken strands of broken DNA will detach from intact strands of cellular DNA during fragmentation, producing a structure similar to a comet tail visible under a fluorescence microscope (Carl Zeiss, Axiostar Plus 1169–149, Jena, Germany). For each slide, 100 photos of comets of varying shapes were captured using a computerized image analysis system. Afterwards, the photos were analyzed using the TriTek Comet ScoreTM program (TriTek Corp., Sumerduck, VA, USA) to gather information about the comet’s properties. The tail DNA and tail moment, two often-utilized markers, were built to be used in discovering the data. The Olive tail moment (OTM), which is also called a tail moment parameter, is generally accepted as the gold standard for evaluating DNA damage. Its value, which was calculated using Equation (3), is proportional to the tail’s DNA mobility and DNA abundance. OTM = quantity of tail moment × quantity of tail DNA divided by 100(3)

BAX [6] = experiment: qRT-PCR of BAX mRNA in Caco-2 cells; assay type: cell-based, human; details: Caco-2, IC50 concentration
From the text: (§2) The relative amounts of messenger RNA (mRNA) for apoptosis-related genes (BCL-2, Caspase-3, and BAX) have been monitored in order to look into potential processes relating to the effect of the tested 3e compound on apoptosis inside the treated Caco-2 cancer cells. In a nutshell, Thermo Fisher Scientific’s RNA purification kit (Waltham, MA, USA) (catalog #K0731) was used to isolate total RNA from both control- and Caco-2-treated cells, as per the manufacturer’s instructions. The ratio of A260/A280 was then quantified using a spectrophotometer to figure out the amounts of extracted RNA in each sample. Then, following the manufacturer’s instructions, first-strand cDNA was produced from the collected RNA samples using a kit made by Thermo Fisher Scientific called RevertAid (catalog #K1621). Real-time PCR amplification was performed on an Applied Biosystems StepOnePlusTM instrument using the Thermo Fisher Scientific Maxima SYBR Green qPCR kit (catalog #K0221) and gene-specific primers (Invitrogen, Waltham, MA, USA), as detailed in Table 3. Then, the relative quantification (RQ) of the utilized genes was calculated using a comparative threshold cycle approach, compared against their varied expression in the untreated samples, and normalized to B-actin as a housekeeping gene. […]

Caspase-3 = experiment: qRT-PCR of Caspase-3 mRNA in Caco-2 cells; assay type: cell-based, human; details: Caco-2, IC50 concentration
From the text: as §2

BCL-2 [7] = experiment: qRT-PCR of BCL-2 mRNA in Caco-2 cells; assay type: cell-based, human; details: Caco-2, IC50 concentration
From the text: as §2

BAX [8] = experiment: ELISA of BAX protein in Caco-2 cells; assay type: cell-based, human; details: Caco-2, IC50 dose
Procedure: (§3) Protein expression levels of the under investigation genes were evaluated in Caco-2 cells treated with compound 3e using an ELISA assay. Three different ELISA kits were used: one for BAX (ab199080), one for cleaved Caspase-3 (ab220655), and one for BCL-2 (ab272102), which were supplied via Abcam (Cambridge, UK). All of these kits are based on a single, highly sensitive sandwich enzyme assay that lasts 90 min and uses a precoated ELISA plate and an anti-tag antibody to capture antibodies that have been labeled with an affinity tag. The tested compound 3e-treated cultured Caco-2 cells were centrifuged, the resulting pellets were discarded, and the residual supernatant was mixed with an antibody cocktail solution in a 96-well ELISA plate. The plate was then incubated for 1 h at room temperature. After thoroughly rinsing the plate in wash buffer (1×), in each well, a ten min incubation period of tetramethylbenzidine substrate solution was conducted. Following that, the plate was stored in a dim area. The intensity at 450 nm was then measured with a microplate reader immediately after a stop solution was added.

cleaved Caspase-3 = experiment: ELISA of cleaved Caspase-3 protein in Caco-2 cells; assay type: cell-based, human; details: Caco-2, IC50 dose
Procedure: as §3

BCL-2 [9] = experiment: ELISA of BCL-2 protein in Caco-2 cells; assay type: cell-based, human; details: Caco-2, IC50 dose
Procedure: as §3

[10] = Caco-2, IC50 concentration after pretreatment with Caspase-3 inhibitor Z-DEVD-FMK for 1 h
[11] = Caco-2, compound alone at IC50 concentration, without Caspase-3 inhibitor

SMILES	melting point	IC50 (Caco-2 cells [1]; Homo sapiens, Caco-2, 24 h)	also measured
O=C(/C=C/C=C/c1ccccc1)c1ccco1 [3d, (2E,4E)-1-(furan-2-yl)-5-phenylpenta-2,4-dien-1-one]		> 1000 µM	
O=C(/C=C/C=C/c1ccc([N+](=O)[O-])cc1)c1ccco1 [3k, (2E,4E)-1-(furan-2-yl)-5-(4-nitrophenyl)penta-2,4-dien-1-one]	189 °C	130 ± 3.28 µM	
O=C(/C=C/C=C/c1ccc([N+](=O)[O-])cc1)c1ccccn1 [3h, (2E,4E)-5-(4-nitrophenyl)-1-(pyridin-2-yl)penta-2,4-dien-1-one]	205 °C	548.6 ± 3.76 µM	
O=C(/C=C/C=C/c1ccc([N+](=O)[O-])cc1)c1cccs1 [3j, (2E,4E)-5-(4-nitrophenyl)-1-(thiophen-2-yl)penta-2,4-dien-1-one]	218 °C	149 ± 2.55 µM	
O=c1[nH]cc(F)c(=O)[nH]1 [5-FU, 5-Fluorouracil, reference compound]		33.1 ± 1.45 µM	effect on wi38 normal cell viability (wi38 cells): decrease in wi38 cell viability with increasing its concentration; IC50 (wi38 cells; Homo sapiens, WI-38, 50–1000 µM, read-out: IC50 against normal wi38 cell): 22.8 ± 2.46 µM
O=C(/C=C/C=C/c1ccc([N+](=O)[O-])cc1)c1cccnc1 [3i, (2E,4E)-5-(4-nitrophenyl)-1-(pyridin-3-yl)penta-2,4-dien-1-one]		207 ± 2.31 µM	

Continued, in another order:

melting point	SMILES	IC50 (Caco-2 cells [1]; Homo sapiens, Caco-2, 24 h)	also measured
182 °C	O=C(/C=C/C=C/c1ccccc1)c1ccccn1 [3a, (2E,4E)-5-phenyl-1-(pyridin-2-yl)penta-2,4-dien-1-one]	725.6 ± 3.69 µM	
170 °C	O=C(/C=C/C=C/c1ccccc1)c1ccc[nH]1 [3e, (2E,4E)-5-phenyl-1-(1H-pyrrol-2-yl)penta-2,4-dien-1-one]	32.1 ± 3.92 µM	antioxidant activity (DPPH scavenging, IC50) compared with the other compounds [2]: highest effective antioxidant activity; IC50 (Caco-2 cells [1]): 32.2 ± 3.92 µM; effect on wi38 normal cell viability (wi38 cells): higher % of wi38 cell viability; also recorded: no detrimental effects; LDH levels versus untreated Caco-2 cells (Caco-2 cells [3]): considerably increased; percentage of apoptotic cells (early and late) versus untreated (Caco-2 cells [4]): much greater percentage of apoptotic cells; % DNA in Tail (Caco-2 cells [5]; [10]): 4.55± 1.73; Olive Tail Moment (OTM) (Caco-2 cells [5]; [10]): 0.69± 0.16; Tail Moment (Caco-2 cells [5]; [10]): 0.44± 0.08; % DNA in Tail (Caco-2 cells [5]; [11]): 8.18 ± 0.56; Olive Tail Moment (OTM) (Caco-2 cells [5]; [11]): 1.92 ± 0.04; Tail Moment (Caco-2 cells [5]; [11]): 1.19 ± 0.03; BAX mRNA expression level versus untreated cells (BAX [6]): increased considerably; Caspase-3 mRNA expression level versus untreated cells (Caspase-3): increased considerably; BCL-2 mRNA expression level versus untreated cells (BCL-2 [7]): substantial reduction; BAX protein level versus untreated cells (BAX [8]): increased levels; cleaved Caspase-3 protein level versus untreated cells (cleaved Caspase-3): increased levels; BCL-2 protein level versus untreated cells (BCL-2 [9]): decreased
102 °C	O=C(/C=C/C=C/c1ccccc1)c1cccs1 [3c, (2E,4E)-5-phenyl-1-(thiophen-2-yl)penta-2,4-dien-1-one]	> 1000 µM	
177 °C	COc1ccccc1/C=C/C=C/C(=O)c1ccc[nH]1 [3g, (2E,4E)-5-(2-methoxyphenyl)-1-(1H-pyrrol-2-yl)penta-2,4-dien-1-one]	336 ± 4.96 µM	
104 °C	O=C(/C=C/C=C/c1ccccc1)c1cccnc1 [3b, (2E,4E)-5-phenyl-1-(pyridin-3-yl)penta-2,4-dien-1-one]	> 1000 µM	
195 °C	COc1ccccc1/C=C/C=C/C(=O)c1ccccn1 [3f, (2E,4E)-5-(2-methoxyphenyl)-1-(pyridin-2-yl)penta-2,4-dien-1-one]	173 ± 3.84 µM	

— PMC10886690, “Synthesis, Characterization, Antioxidant, and Anticancer Activity against Colon Cancer Cells of Some Cinnamaldehyde-Based Chalcone Derivatives” (Biomolecules, 2024)
